{
  "source": "patent US9593154B2",
  "about": "“Engineered polypeptides having enhanced duration of action” (AMYLIN PHARMACEUTICALS, LLC, priority 2010, dated 2017)",
  "key": {"[1]": {"assay": "Stability in human plasma", "type": "in vitro ADME", "details": "10 μg/ml in human plasma, 37 degrees C, 5 hours; normalized to a standard (100%)"}, "[2]": {"system": "human kidney brush border membrane protein extracts", "assay": "Human kidney brush border membrane (KBBM) stability assay", "type": "in vitro ADME", "details": "hKBBM, 30 microM peptide, 37 degrees C, 5 hours; relative to positive control", "experimental": "Relative stability of representative peptides in a human kidney brush border membrane (KBBM) assay was performed as follows. Human kidney brush border membrane protein extracts are rich in various peptidases. […] In a separate vial, peptide stock solution (300 microM in 50% acetonitrile in water) was prepared and 70 microL of this solution was added to the above hKBBMP solution. The solution was gently mixed by manual shaking so that the final peptide concentration is 30 microM. Then 100 microL of this solution was aliquoted into six different tubes and into one tube 200 microL of enzyme stop solution (50% acetonitrile in water with 0.1% TFA) was added. This tube was used for the measurement of the initial peptide concentration at time t=0 minute while all other 5 tubes were incubated at 37 degrees C. using a water bath. At intervals of 1, 2, 3, 4 and 5 hour, each tube was taken out and quenched with 200 microL of stop solution. Finally, all six tubes were centrifuged at 1800×g for 10 min to remove any precipitated proteins. The supernatant (10 microL) was transferred into an HPLC auto sampler, and by using selected ion count method AUC was measured. Each sample was run in triplicates and average AUC was calculated for data analysis. Sample analysis was done on Agilent HPLC with mass detector with an acetonitrile with 0.1% TFA gradient. […]"}, "NIH/Swiss female mice": {"system": "NIH/Swiss female mice", "assay": "OGTT DOA (oral glucose tolerance test for duration of action)", "type": "in vivo, mouse", "details": "for % Glucose Lowering Compared to Vehicle: 25 nmol/kg IP at t=-1 day, glucose gavage 1.5 g/kg at t=0, blood glucose at 30 min, 24 hours post dose", "method": "In vivo assays for activity and duration of action and pharmacokinetics can be done using known methods. For example, duration can be performed using an oral glucose tolerance test (OGTT) in which the drug is administered to the subject at a desired time point before the glucose is administered orally (to measure drug duration of action; OGTT DOA) and glucose blood levels are measured (e.g. readily done in mice). Activity and duration can also be measured using an intravenous glucose tolerance test (IVGTT) in which the drug is administered to the subject at a desired time point before the glucose is administered IV (IVGTT DOA) and blood glucose levels are measured (e.g. can readily be done in rats). Preferred engineered compounds have a desired effect on blood glucose of at least 24 hours duration after a single dose of drug, preferably at least 3 days, at least 4 days, at least 5 days, at least 6 days, and at least 1 week after the single dose of drug is given.\nThe effects on blood glucose prior to glucose gavage ([…]) and at 30 minutes post-glucose gavage were investigated 1 day post dose of peptide compound with varying amounts of Cmpd 15, with results shown in FIGS. 1A-1B. Bars represent mean±sd. Peptide was injected IP at t=−1 day. Glucose gavage (1.5 g/kg) given at t=0 to 4-hour fasted NIH/Swiss female mice. Blood glucose was measured with a OneTouch® Ultra® (LifeScan, Inc., a Johnson & Johnson Company, Milpitas, Calif.) * p<0.05 vs. vehicle control; ANOVA, Dunnett's test. This OGTT DOA indicates drug activity is present at least 24 hours after drug was administered. Exendin-4 (unconjugated) was ineffective in this assay when dosed at t-24 hours (1 day prior to the glucose assay), and even at higher doses.\nThe effects on blood glucose prior to gavage ([…]) and at 30 min were investigated 2 day post dose with varying amounts of Cmpd 15, with results shown in FIGS. 2A-2B. This OGTT DOA indicates drug activity is present at least 48 hours after drug was administered.\nA comparison of the effects of Cmpds 15 and 8 on blood glucose was conducted, with results depicts in FIGS. 3A-3B. This OGTT DOA indicates drug activity is present at least 24 hours after drug was administered.\nThe effects of Cmpds 15, 8 and 10 on the change in blood glucose at 30 min (% pre-gavage) was investigated, as depicted in FIG. 7. In the figure, bars represent mean±s.d. Test compound was injected IP at t=−1 day. Glucose gavage (1.5 g/kg) given at t=0 to 4 hr fasted NIH/Swiss female mice. Blood glucose was measured as described herein. This OGTT DOA indicates drug activity is present at least 24 hours after drug was administered.\nThe effects of compounds disclosed herein on the change in blood glucose at 30 min (% pre-gavage) were investigated as described above. Test compound was injected IP at t=−1 day at 25 nmol/kg. Glucose gavage (1.5 g/kg) given at t=0 to 4 hr fasted NIH/Swiss female mice. Blood glucose was measured as described herein. This OGTT DOA indicates drug activity is present at least 24 hours after drug was administered. […] Exendin-4 (unconjugated) was ineffective in this assay when dosed at t-24 hours, and even at higher doses. […] Cmpd 22 with an albumin binding sequence the PAB protein from P. magnus had little if any […] (3%) in the above assay."}, "ob/ob mice": {"system": "ob/ob mice", "assay": "Effect on body weight, glucose and HbA1c in ob/ob mice after single sc dose", "type": "in vivo, mouse", "details": "non-fasted male ob/ob mice; Cmpd 15 at 250 nmol/kg sc on day 0", "method": "The time course of the effect of Cmpd 15 on body weight, glucose and HbA1c in ob/ob mice was investigated post dose. […] Changes in glucose (% pre-treatment) and in HbA1c (% pre-treatment) are depicted in FIGS. 5B-5C. Points represent mean±s.d. (standard deviation). Cmpd 15 was injected sc on day=0 immediately following baseline sample collection in non-fasted male ob/ob mice. Unless indicated otherwise, blood glucose measures described herein employed a OneTouch® Ultra® device (LifeScan, Inc. Miliptas, Calif.)."}, "[3]": {"system": "renal cortical tubular epithelial cells", "assay": "Kidney vacuolization histopathology", "type": "in vivo, mouse", "details": "C57BL6 female mice, sc injection days 0-6, sacrifice day 7", "method": "With some drugs, such as some pegylated proteins, undesirable vacuoles can form in cytoplasm of epithelial cells lining the proximal convoluted tubules, which is an undesirable toxicity measure. […] C57BL6 female mice (n=2 cages, 3 mice/cage) were weighed daily 3 hours prior to lights out. Immediately after weighing, on days 0-6 mice were injected subcutaneously with test compound. Mice were sacrificed on day 7 and kidneys submitted for histopathology. […] A positive control compound known to cause vacuole formation was scored as 3. The ABD polypeptide itself scored 0. Cmpd 15 scored 0."}, "diabetic ob/ob mice": {"system": "diabetic ob/ob mice", "assay": "Chronic exposure in diabetic ob/ob mice (twice weekly, 28 days)", "type": "in vivo, mouse", "method": "The time course of the effect of the test compound on body weight, glucose lowering and HbA1c lowering in ob/ob mice was investigated post dose, with values at 4 weeks presented in FIGS. 11A, 11B, 11C and 11D. […] Points represent mean±s.d. (standard deviation). Each test compound was injected IP on day=0 immediately following baseline sample collection in non-fasted male ob/ob mice. The effects observed for the 25 nmol/kg biw (twice weekly) dose was greater than that observed for exendin-4 given at ˜7.2 nmol/kg/d by continuous infusion (CSI), a dose known to provide a maximal efficacy for exendin-4. […] Unless indicated otherwise, blood glucose measures described herein employed a OneTouch® Ultra® device (LifeScan, Inc. Miliptas, Calif.)."}, "[4]": {"assay": "Pharmacokinetic profile after subcutaneous dosing in normal HSD rats", "type": "in vivo, rat", "details": "25 nmol/kg single dose", "method": "Blood was collected via tail bleed at t=1 hour, 3 hours, 6 hours, 24 hours, 48 hours, 72 hours, 96 hours and 168 hours from fed HSD male rats. Food and body weights were measured daily. […] Points represent mean±sd."}, "db/db mice": {"system": "db/db mice", "assay": "Oral delivery (gavage) in diabetic db/db mice, blood glucose", "details": "PBS/propylene glycol (50:50)"}, "[5]": {"details": "25 and 250 nmol/kg IP twice each week for 28 days"}},
  "data": [
    {"compound": "CC[C@H](C)[C@H](NC(=O)[C@H](Cc1ccccc1)NC(=O)[C@H](CCC(=O)O)NC(=O)[C@H](CCCCN)NC(=O)[C@H](C)NC(=O)[C@H](C)NC(=O)[C@H](CCC(N)=O)NC(=O)CNC(=O)[C@H](CCC(=O)O)NC(=O)[C@H](CC(C)C)NC(=O)[C@H](Cc1ccc(O)cc1)NC(=O)[C@H](CO)NC(=O)[C@H](CO)NC(=O)[C@@H](NC(=O)[C@H](CC(=O)O)NC(=O)[C@H](CO)NC(=O)[C@@H](NC(=O)[C@H](Cc1ccccc1)NC(=O)[C@@H](NC(=O)CNC(=O)[C@H](CCC(=O)O)NC(=O)[C@H](C)NC(=O)[C@@H](N)Cc1c[nH]cn1)[C@@H](C)O)[C@@H](C)O)C(C)C)C(=O)N[C@@H](C)C(=O)N[C@@H](Cc1c[nH]c2ccccc12)C(=O)N[C@@H](CC(C)C)C(=O)N[C@H](C(=O)N[C@@H](CCCCN)C(=O)NCC(=O)N[C@@H](CCCNC(=N)N)C(N)=O)C(C)C", "note": "[GLP-1(7-36) amide, reference compound]", "values": [
      {"measurement": "Percent Stable in Human Plasma", "setting": "[1]", "result": 41.7, "unit": "%"},
      {"measurement": "Percent Stable", "setting": "[2]", "result": 16, "unit": "%"}
    ]},
    {"compound": "HGEGTFTSDLSKQLEEEAVRLFIEWLKQGGPSKEIISGGSLAEAKVLANRELDKYGVSDFYKRLINKAKTVEGVEALKLHILAALP [Cmpd 33]", "values": [
      {"measurement": "% Glucose Lowering Compared to Vehicle", "setting": "NIH/Swiss female mice", "result": "−19", "unit": "%"}
    ]},
    {"compound": "HGEGTFTSDLSKQLEEEAVRLFIEWLKQGGPSKEIISTGGGGSASLAEAKVLANRELDKYGVSDFYKRLINKAKTVEGVEALKLHILAALP [Cmpd 15]", "values": [
      {"measurement": "% Glucose Lowering Compared to Vehicle", "setting": "NIH/Swiss female mice", "result": "−21", "unit": "%"},
      {"measurement": "effect on body weight", "setting": "ob/ob mice", "result": "significant body weight loss"},
      {"measurement": "Percent Stable in Human Plasma", "setting": "[1]", "result": 96.0, "unit": "%"},
      {"measurement": "Severity score for cytoplasmic vacuolation of renal cortical tubular epithelial cells", "setting": "[3]", "result": 0},
      {"measurement": "effects compared to maximally efficacious dose of exendin-4 (7.2 nmol/kg/d CSI)", "setting": "diabetic ob/ob mice; 25 nmol/kg biw, comparable equimolar dose", "result": "exceeded the glycemic and body weight loss effects of the maximally efficacious dose of exendin-4"},
      {"measurement": "effects compared to maximally efficacious dose of exendin-4", "setting": "diabetic ob/ob mice; 250 nmol/kg biw", "result": "significantly greater"},
      {"measurement": "HbA1c lowering (% change from baseline)", "setting": "diabetic ob/ob mice; [5]", "result": "significant HbA1c lowering"},
      {"measurement": "body weight loss (% change from baseline)", "setting": "diabetic ob/ob mice; [5]", "result": "significant body weight loss"},
      {"measurement": "HbA1c lowering and body weight loss compared to liraglutide", "setting": "diabetic ob/ob mice; equimolar dosing to liraglutide, data not shown", "result": "more effective than liraglutide"},
      {"measurement": "glucose lowering compared to liraglutide", "setting": "diabetic ob/ob mice; equimolar dosing, twice weekly (BIW), chronic exposure", "result": "superior to liraglutide"},
      {"measurement": "apparent half-life", "setting": "[4]", "result": 54, "unit": "h"},
      {"measurement": "blood glucose lowering activity after oral dosing", "setting": "db/db mice; 240 nmol/kg peroral gavage, to 120 minutes, 2-hour fasted db/db mice", "result": "active when dosed orally"},
      {"measurement": "oral bioavailability", "setting": "db/db mice; peroral gavage, 1 mg/kg", "result": "orally bioavailable"}
    ]},
    {"compound": "HGEGTFTSDLSKQLEEEAVRLFIEWLKQGGPSKEIISTGGGGSGGGSGGGSGGGSASLAEAKVLANRELDKYGVSDFYKRLINKAKTVEGVEALKLHILAALP [Cmpd 8]", "values": [
      {"measurement": "% Glucose Lowering Compared to Vehicle", "setting": "NIH/Swiss female mice", "result": "−21", "unit": "%"}
    ]},
    {"compound": "HGEGTFTSDLSKQMEEEAVRLFIEWLKNGGSLAEAKVLANRELDKYGVSDFYKRLINKAKTVEGVEALKLHILAALP [Cmpd 32]", "values": [
      {"measurement": "glucose lowering activity when dosed 24 hours before the OGTT (in words)", "setting": "NIH/Swiss female mice; dosed IP at t=-1 day", "result": "no glucose lowering"}
    ]},
    {"compound": "HGEGTFTSDLSKQMEEEAVRLFIEWLKNTGGGGSASLAEAKVLANRELDKYGVSDFYKRLINKAKTVEGVEALKLHILAALP [Cmpd 10]", "values": [
      {"measurement": "% Glucose Lowering Compared to Vehicle", "setting": "NIH/Swiss female mice", "result": "−22", "unit": "%"}
    ]}
  ]
}
